# Measurements published in patent US9353072B2, “Antimicrobial substituted thiazoles and methods of use” (Purdue Research Foundation, priority 2012, dated 2016).
# Entries after “also recorded” stand apart in the source; their conditions may differ. Read-outs that look alike come from different tables or passages of the source.
# Assays:
# NRS119 = assay: MIC/MBC broth microdilution, NRS119; format: cell-based; conditions: Staphylococcus aureus
# Outline: (§1)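 Broth microdilution following CLSI guidelines was used to determine MICs, with each strain tested in triplicate.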
# NRS107 = assay: MIC/MBC broth microdilution, NRS107; format: cell-based; conditions: Staphylococcus aureus
# Outline: as §1
# MRSA USA700 = assay: MIC broth microdilution, MRSA USA700; format: cell-based; conditions: Staphylococcus aureus, Table 2, read-out: Minimum Inhibitory Concentration
# Method: (§2) Determination of minimum inhibitory concentration (MIC). The MICs of the lead thiazole compound (compound 1a) and nine derivatives tested against all 18 MRSA strains were determined, in triplicate samples, using the broth microdilution method in accordance with the recommendations contained in the CLSI guidelines.
# [1] = tested on: MRSA ATCC 700699 (NRS1, VISA); assay: MIC/MBC broth microdilution, NRS1 (ATCC 700699); format: cell-based; conditions: Staphylococcus aureus
# Outline: as §1
# [2] = tested on: 18 different strains of MRSA and VRSA; assay: MIC broth microdilution, panel of 18 MRSA and VRSA strains (summary statements); format: cell-based, Staphylococcus aureus; conditions: for improvement in the MIC value relative to the lead compound: relative to lead compound 1a, number of strains as stated in the sentence
# Method: as §2
# MRSA ATCC 43300 [3] = assay: MIC/MBC broth microdilution, MRSA ATCC 43300; format: cell-based, Staphylococcus aureus; conditions: Staphylococcus aureus
# Outline: as §1
# MRSA (USA300) = assay: Time-kill assay; format: cell-based, Staphylococcus aureus; conditions: 3.0×MIC; for bactericidal effect in time-kill assay: 12 hour incubation at 37° C.; for time to eliminate MRSA completely (reduce CFU to zero): MRSA (USA300)
# Method: Time-kill assay. […] Viable CFU/mL was determined by serial dilution and plating on trypticase soy agar (TSA) (Becton, Dickinson and Company, Sparks, Md., USA) plates after 0, 2, 4, 6, 8, 10, and 12 hours of incubation at 37° C. to identify the time required to reduce the bacterial cell count by 3-log10.
# MRSA USA100 = assay: MIC broth microdilution, MRSA USA100; format: cell-based; conditions: Staphylococcus aureus; Table 2; MRSA USA100; read-out: Minimum Inhibitory Concentration
# Method: as §2
# NRS194 = assay: MIC/MBC broth microdilution, NRS194; format: cell-based; conditions: Staphylococcus aureus
# Outline: as §1
# MRSA USA500 (NRS385) = assay: MIC/MBC broth microdilution, NRS385 (USA500); format: cell-based; conditions: Staphylococcus aureus
# Outline: as §1
# MRSA ATCC 43300 [4] = assay: Flow cytometry with LIVE/DEAD Fixable Dead Cell Stain; format: cell-based, Staphylococcus aureus; conditions: compound 1a at 4.0×MIC; lysostaphin positive control; 10 minutes at 37° C.
# Method: Flow cytometry and LIVE/DEAD® Fixable Dead Cell Stain: The action of the lead compound on cell membrane permeability of MRSA was assayed using the LIVE/DEAD® Fixable Dead Cell Stain Kit (Invitrogen, Eugene, Oreg., USA) according to the manufacturer's instructions. […] Post-treatment cells were fixed with 3.7% formaldehyde; the cells were then screened with a Beckman Coulter FC500 flow cytometer.
# VRSA (VRS10) = assay: MIC/MBC broth microdilution, VRSA (VRS10); format: cell-based, Staphylococcus aureus; conditions: Staphylococcus aureus, read-out: Minimum Inhibitory Concentration
# Outline: as §1
# VISA HIP07256 (NRS19) = assay: MIC/MBC broth microdilution, NRS19 (VISA HIP07256); format: cell-based; conditions: Staphylococcus aureus
# Outline: as §1
# MRSA USA800 = assay: MIC broth microdilution, MRSA USA800; format: cell-based; conditions: Staphylococcus aureus, Table 2, read-out: Minimum Inhibitory Concentration
# Method: as §2
# MRSA NRS384 (USA300) = assay: MIC/MBC broth microdilution, NRS384 (USA300); format: cell-based; conditions: Staphylococcus aureus
# Outline: as §1
# VISA LIM 3 (NRS37) = assay: MIC/MBC broth microdilution, NRS37 (VISA LIM 3); format: cell-based; conditions: Staphylococcus aureus
# Outline: as §1
# MRSA USA400 (NRS123) = assay: MIC/MBC broth microdilution, NRS123 (USA400); format: cell-based; conditions: Staphylococcus aureus
# Outline: as §1
# MRSA USA1000 = assay: MIC broth microdilution, MRSA USA1000; format: cell-based; conditions: Staphylococcus aureus, Table 2, read-out: Minimum Inhibitory Concentration
# Method: as §2
# MRSA USA200 = assay: MIC broth microdilution, MRSA USA200; format: cell-based; conditions: Staphylococcus aureus; Table 2; MRSA USA200; read-out: Minimum Inhibitory Concentration
# Method: as §2
# [5] = tested on: murine macrophage cells (J774.A1); assay: In vitro cytotoxicity analysis, MTS assay; format: cell-based; conditions: 16 μM, 24 hours
# Method: In vitro cytotoxicity analysis: Compounds were assayed at concentrations of 2 μM, 4 μM, 8 μM, and 16 μM against a macrophage cell line (J774.A1) to determine the potential toxic effect in vitro. Murine macrophage cells were cultured in Dulbeco's Modified Eagle Medium (Sigma-Aldrich, St. Louis, Mo., USA) with 10% Fetal Bovine Serum (USA Scientific, Inc.) at 37° C. with 5% CO2. Controls received DMSO alone at a concentration equal to that in drug-treated cell samples. The cells were incubated with the compounds in a 96-Well Plate at 37° C. and 5.0% CO2 for 24 hours prior to addition of the assay reagent MTS 3-(4,5-dimethylthiazol-2-yl)-5-(3-carboxymethoxyphenyl)-2-(4-sulfophenyl)-2H-tetrazolium) (Promega, Madison, Wis., USA). The reagent measures the succinate dehydrogenase mitochondrial activity as an indicator of cell viability and proliferation. Corrected absorbance readings (actual absorbance readings for each treatment subtracted from background absorbance) were taken using a kinetic ELISA microplate reader (Molecular Devices, Sunnyvale, Calif., USA). The quantity of viable cells after treatment with each compound was expressed as a percentage of the control, DMSO.
# MRSA USA1100 = assay: MIC broth microdilution, MRSA USA1100; format: cell-based; conditions: Staphylococcus aureus, Table 2, read-out: Minimum Inhibitory Concentration
# Method: as §2
# NRS108 = assay: MIC broth microdilution, NRS108; format: cell-based; conditions: Staphylococcus aureus, Table 2, read-out: Minimum Inhibitory Concentration
# Method: as §2
# [6] = Table 2, MRSA ATCC 700699, read-out: Minimum Inhibitory Concentration
# [7] = Table 2, MRSA USA500, read-out: Minimum Inhibitory Concentration
# [8] = Table 2, MRSA USA300, read-out: Minimum Inhibitory Concentration
# [9] = Table 2, VISA LIM 3, read-out: Minimum Inhibitory Concentration
# [10] = Table 2, read-out: Minimum Inhibitory Concentration
# [11] = Table 2, MRSA USA400, read-out: Minimum Inhibitory Concentration
smiles,measurement,setting,value
CCCCc1ccc(-c2nc(C)c(/C(C)=N/NC(=N)N)s2)cc1 [Compound 1a],MIC,"NRS119; NRS 119 / VISA, Table 7, VISA (NRS119), read-out: Minimum Inhibitory Concentration",4 µM
same,MBC,"NRS119; Table 8, NRS119, read-out: MBC",8 µM
same,MIC,"NRS119; Table 8, NRS119, read-out: MIC",8 µM
same,MBC,"NRS107; Table 8, read-out: MBC",8 µM
same,MIC,"NRS107; Table 8, read-out: MIC",8 µM
same,MIC,MRSA USA700,1.4 µg/mL
same,MIC,[1]; [6],1.4 µg/mL
same,MIC,"[1]; Table 7, VISA (NRS1), read-out: Minimum Inhibitory Concentration",16 µM
same,MBC,"[1]; Table 8, NRS1 (VISA), read-out: MBC",8 µM
same,MIC,"[1]; Table 8, NRS1 (VISA), triplicates, 20 hours, read-out: MIC",4 µM
same,"concentration inhibiting growth (MIC), range over the strains tested",[2]; 18 strains of MRSA and VRSA,1.4 to 5.5 µg/mL
same,MIC,"MRSA ATCC 43300 [3]; Table 4, MRSA ATCC 43300, 64 μM down to 0.5 μM, 37° C., 19 hours, read-out: Minimum Inhibitory Concentration",4 µM
same,MIC,"MRSA ATCC 43300 [3]; Table 7, MRSA (ATCC 43300), read-out: Minimum Inhibitory Concentration",4 µM
same,MBC,"MRSA ATCC 43300 [3]; Table 8, ATCC 43300, read-out: MBC",4 µM
same,MIC,"MRSA ATCC 43300 [3]; Table 8, ATCC 43300, read-out: MIC",4 µM
same,bactericidal effect in time-kill assay,MRSA (USA300),bactericidal
same,time to eliminate MRSA completely (reduce CFU to zero),MRSA (USA300),within two hours
same,MIC,MRSA USA100,5.5 µg/mL
same,MBC,"NRS194; Table 8, read-out: MBC",4 µM
same,MIC,"NRS194; Table 8, read-out: MIC",4 µM
same,MIC,MRSA USA500 (NRS385); [7],1.4 µg/mL
same,MBC,"MRSA USA500 (NRS385); Table 8, NRS385, read-out: MBC",4 µM
same,MIC,"MRSA USA500 (NRS385); Table 8, NRS385, read-out: MIC",4 µM
same,cells stained with the dye,MRSA ATCC 43300 [4],1.5%
same,MIC,"VRSA (VRS10); Table 7, VRSA (VRS10)",4 µM
same,MIC,"VISA HIP07256 (NRS19); Table 2, VISA HIP07256, read-out: Minimum Inhibitory Concentration",1.4 µg/mL
same,MBC,"VISA HIP07256 (NRS19); Table 8, NRS19 (VISA), read-out: MBC",8 µM
same,MIC,"VISA HIP07256 (NRS19); Table 8, NRS19 (VISA), read-out: MIC",4 µM
same,MIC,MRSA USA800,2.8 µg/mL
same,MIC,MRSA NRS384 (USA300); [8],1.4 µg/mL
same,MIC,"MRSA NRS384 (USA300); Table 5, MRSA NRS384 (USA300), 128 μM down to 1.0 μM, 37° C., 19 hours, read-out: Minimum Inhibitory Concentration",4 µM
same,MBC,"MRSA NRS384 (USA300); Table 8, NRS384, read-out: MBC",4 µM
same,MIC,"MRSA NRS384 (USA300); Table 8, NRS384, read-out: MIC",4 µM
same,MIC,VISA LIM 3 (NRS37); [9],1.4 µg/mL
same,MBC,"VISA LIM 3 (NRS37); Table 8, NRS37 (VISA), read-out: MBC",8 µM
same,MIC,"VISA LIM 3 (NRS37); Table 8, NRS37 (VISA), read-out: MIC",8 µM
same,MBC,"MRSA USA400 (NRS123); Table 8, NRS123, read-out: MBC",4 µM
same,MIC,"MRSA USA400 (NRS123); Table 8, NRS123, read-out: MIC",4 µM
CCCCCCCc1ccc(-c2nc(C)c(/C(C)=N/NC(=N)N)s2)cc1 [Compound 1e],MIC,MRSA USA1000,3 µg/mL
same,MIC,MRSA USA200,1.5 µg/mL
same,MIC,NRS107; [10],0.7 µg/mL
same,MIC,MRSA USA700,3 µg/mL
same,MIC,[1]; [6],0.7 µg/mL
same,MIC,MRSA USA100,1.5 µg/mL
same,toxicity toward murine macrophage cells,[5],exhibited toxicity; also recorded: toxic
same,MIC,MRSA USA500 (NRS385); [7],3 µg/mL
same,MIC,"VRSA (VRS10); Table 2, VRSA",3 µg/mL
same,MIC,MRSA NRS384 (USA300); [8],3 µg/mL
same,MIC,VISA LIM 3 (NRS37); [9],0.7 µg/mL
"C/C(=N\NC(=N)N)c1sc(-c2ccc(C3CCCCC3)cc2)nc1C [Compound 8, 2-{1-[2-(4-Cyclohexylphenyl)-4-methylthiazol-5-yl]ethylidene}hydrazinecarboximid-amide]",MIC,MRSA USA200,1.5 µg/mL
same,MIC,NRS107; [10],0.7 µg/mL
same,MIC,[1]; [6],0.7 µg/mL
same,improvement in the MIC value relative to the lead compound,[2],two- to four-fold improvement
same,bactericidal effect in time-kill assay,MRSA (USA300),bactericidal
same,time to eliminate MRSA completely (reduce CFU to zero),MRSA (USA300),six hours
same,toxicity toward murine macrophage cells,[5],none were observed to be toxic
same,MIC,MRSA USA500 (NRS385); [7],0.7 µg/mL
same,MIC,MRSA USA1100,0.7 µg/mL
same,MIC,MRSA NRS384 (USA300); [8],0.7 µg/mL
same,MIC,VISA LIM 3 (NRS37); [9],0.4 µg/mL
same,MIC,MRSA USA400 (NRS123); [11],0.7 µg/mL
"C/C(=N\NC(=N)N)c1sc(-c2ccc(-c3ccccc3)cc2)nc1C [Compound 12, 2-{1-[2-([1,1′-Biphenyl]-4-yl)-4-methylthiazol-5-yl]ethylidene}hydrazinecarboximid-amide]",MIC,MRSA USA700,0.6 µg/mL
same,MIC,[1]; [6],0.6 µg/mL
same,improvement in the MIC value relative to the lead compound,[2],two- to four-fold improvement
same,MIC,MRSA USA100,2.4 µg/mL
same,MIC,NRS194; [10],1.2 µg/mL
same,toxicity toward murine macrophage cells,[5],none were observed to be toxic
same,MIC,MRSA USA500 (NRS385); [7],1.2 µg/mL
same,MIC,"VRSA (VRS10); Table 2, VRSA",1.2 µg/mL
same,MIC,MRSA USA1100,0.6 µg/mL
same,MIC,MRSA NRS384 (USA300); [8],1.2 µg/mL
same,MIC,NRS108,2.4 µg/mL
same,MIC,MRSA USA400 (NRS123); [11],0.6 µg/mL
